Bounds are passed on as bounds.

For one assay, the target named is His-tagged CRBN-DDB1 complex (Homo sapiens (Human), UniProt Q96SW2). The assay can be described thus: Time-Resolved Fluorescence Resonance Energy Transfer (TR-FRET) assay. The assay is classed as binding. The note with it: competition with Cy5-labeled thalidomide (8 nM), 1 hour at room temperature; read-out: CRBN HTRF IC50. Here is the method: The mixture were incubated at room temperature for 1 hour. […] Quantitative loss of FRET efficiency as a function of compound concentrations was fitted by a four-parameter Logistic Function using GraphPad Prism 7.0 and the IC50 values were reported for each compound.
Chain of His-tagged CRBN-DDB1 complex (Q96SW2 whole entry): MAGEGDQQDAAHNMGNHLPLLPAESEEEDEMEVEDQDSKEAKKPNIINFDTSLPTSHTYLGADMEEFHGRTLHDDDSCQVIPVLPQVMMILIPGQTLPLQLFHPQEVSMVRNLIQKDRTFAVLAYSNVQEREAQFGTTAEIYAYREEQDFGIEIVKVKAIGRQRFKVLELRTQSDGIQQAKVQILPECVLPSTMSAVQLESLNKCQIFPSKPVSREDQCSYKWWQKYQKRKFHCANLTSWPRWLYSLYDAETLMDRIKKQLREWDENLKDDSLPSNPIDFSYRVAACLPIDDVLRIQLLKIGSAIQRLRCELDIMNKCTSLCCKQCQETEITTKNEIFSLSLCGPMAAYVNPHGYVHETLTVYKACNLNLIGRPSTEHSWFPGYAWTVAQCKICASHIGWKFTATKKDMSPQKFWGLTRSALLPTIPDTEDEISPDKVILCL
Chain of His-tagged CRBN-DDB1 complex (Q16531 whole entry partner): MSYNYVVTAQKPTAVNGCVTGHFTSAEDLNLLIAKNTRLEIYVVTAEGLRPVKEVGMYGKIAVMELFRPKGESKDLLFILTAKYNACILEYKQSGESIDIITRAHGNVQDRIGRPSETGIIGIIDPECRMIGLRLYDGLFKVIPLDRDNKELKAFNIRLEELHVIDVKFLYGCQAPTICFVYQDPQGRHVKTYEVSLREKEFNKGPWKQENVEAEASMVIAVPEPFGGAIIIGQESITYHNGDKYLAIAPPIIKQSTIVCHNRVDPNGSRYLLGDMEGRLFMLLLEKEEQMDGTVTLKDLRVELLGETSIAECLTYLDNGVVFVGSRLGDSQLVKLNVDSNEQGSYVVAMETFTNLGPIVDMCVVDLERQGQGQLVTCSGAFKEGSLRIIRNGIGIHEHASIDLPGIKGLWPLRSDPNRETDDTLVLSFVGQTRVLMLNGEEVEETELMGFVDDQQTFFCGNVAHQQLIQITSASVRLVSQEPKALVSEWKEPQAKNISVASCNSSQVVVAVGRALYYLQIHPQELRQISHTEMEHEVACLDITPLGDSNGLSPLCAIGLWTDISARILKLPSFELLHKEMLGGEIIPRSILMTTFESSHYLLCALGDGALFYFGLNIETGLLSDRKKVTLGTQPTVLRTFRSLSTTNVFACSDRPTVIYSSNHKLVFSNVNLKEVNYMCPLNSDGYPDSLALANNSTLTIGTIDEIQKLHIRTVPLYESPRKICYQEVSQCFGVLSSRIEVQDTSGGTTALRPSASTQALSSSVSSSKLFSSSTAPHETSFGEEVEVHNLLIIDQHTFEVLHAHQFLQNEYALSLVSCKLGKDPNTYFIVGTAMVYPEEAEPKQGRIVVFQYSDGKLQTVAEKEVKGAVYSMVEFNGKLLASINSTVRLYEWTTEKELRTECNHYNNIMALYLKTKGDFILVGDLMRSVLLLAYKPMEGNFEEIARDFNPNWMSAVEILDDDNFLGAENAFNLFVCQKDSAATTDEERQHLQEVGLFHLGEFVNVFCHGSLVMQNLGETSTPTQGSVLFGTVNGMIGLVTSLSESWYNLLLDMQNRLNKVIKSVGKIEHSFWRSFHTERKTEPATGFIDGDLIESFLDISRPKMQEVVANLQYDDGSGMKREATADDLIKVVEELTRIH
The compound numbers correspond to the compound numbers in Table 1.
A general note: Time-resolved FRET reads energy transfer from a long-lived donor to a nearby acceptor.
A word on the IC50: it is the concentration that inhibits the measured activity by half. In the case of `O=C1CCC(Sc2nc3ccc(Cl)cc3[nH]2)C(=O)N1` (centres unmarked) [Compound I-8], the IC50 is 1 to 10 µM. With `O=c1ccn(-c2ccccn2)c(=O)[nH]1` [Compound I-28, 1-(pyridin-2-yl)pyrimidine-2,4(1H,3H)-dione], the IC50 was > 100 µM. The same measure, in the same setting: then `Cn1c(=O)n(C2SC(=O)NC2=O)c2ccccc21` (centres unmarked) [Compound I-39], with > 100 µM.

The same assay, now with this note: read-out: CRBN HTRF IC50.
Turning to `O=C1CCC(Sc2ccccc2)C(=O)N1` (centres unmarked) [Compound I-4, 3-(phenylthio)piperidine-2,6-dione], the IC50 was 10 to 100 µM.

Turning to `O=C1CCC(Sc2ccccn2)C(=O)N1` (centres unmarked) [Compound I-6, 3-(pyridin-2-ylthio)piperidine-2,6-dione], the IC50 was in the range of 10 to 100 µM. `O=C1CCC(Sc2ccc(F)cc2)C(=O)N1` (centres unmarked) [Compound I-7]: the IC50 was 10 to 100 µM. Take `COc1ccc(SC2CCC(=O)NC2=O)cc1` (centres unmarked) [Compound I-9, 3-((4-methoxyphenyl)thio)piperidine-2,6-dione]: the IC50 was in the range of 10 to 100 µM. In the case of `O=C1CCC(Sc2ccc(C(=O)O)cc2)C(=O)N1` (centres unmarked) [Compound I-10, 4-((2,6-dioxopiperidin-3-yl)thio)benzoic acid], the IC50 fell in the range of 10 to 100 µM. For the compound `CCn1c(SC2CCC(=O)NC2=O)nc2ccccc21` (centres unmarked) [Compound I-11, 3-((1-ethyl-1H-benzo[d]imidazol-2-yl)thio)piperidine-2,6-dione], the IC50 is 1 to 10 µM. Take `Cn1c(SC2CCC(=O)NC2=O)nc2ccccc21` (centres unmarked) [Compound I-12, 3-(1-Methyl-1H-benzoimidazol-2-ylsulfanyl)-piperidine-2,6-dione]: the IC50 was 10 to 100 µM.

Regarding `CC(=O)Nc1ccc(SC2CCC(=O)NC2=O)cc1` (centres unmarked) [Compound I-13, N-[4-(2,6-Dioxo-piperidin-3-ylsulfanyl)-phenyl]-acetamide], the IC50 lay in the range of 10 to 100 µM. Regarding `Nc1ccc(SC2CCC(=O)NC2=O)cc1` (centres unmarked) [Compound I-14, 3-(4-Amino-phenylsulfanyl)-piperidine-2,6-dione], the IC50 lay in the range of 10 to 100 µM. With `O=C1CCC(Sc2ccc(Cl)cc2)C(=O)N1` (centres unmarked) [Compound I-15, 3-((4-chlorophenyl)thio)piperidine-2,6-dione], the IC50 lay within 10 to 100 µM. Still for that read-out and setting: the figure for `O=C1CCC(Sc2ccc(C(F)(F)F)cc2)C(=O)N1` (centres unmarked) [Compound I-16, 3-((4-(trifluoromethyl)phenyl)thio)piperidine-2,6-dione] is 10 to 100 µM.

`CCc1ccc(SC2CCC(=O)NC2=O)cc1` (centres unmarked) [Compound I-17, 3-((4-ethylphenyl)thio)piperidine-2,6-dione]: the IC50 lay within 1 to 10 µM. Regarding `O=C1CCN(Cc2ccccc2)C(=O)N1` [Compound I-24, 1-Benzyl-dihydro-pyrimidine-2,4-dione], the IC50 fell in the range of 10 to 100 µM. As to `O=c1ccn(-c2ccccc2)c(=O)[nH]1` [Compound I-27, 1-phenylpyrimidine-2,4(1H,3H)-dione], the half-maximal inhibitory concentration (IC50) was 10 to 100 µM. On to `O=C1NC(=O)C(N2CC(c3ccccc3)OC2=O)S1` (centres unmarked) [Compound I-38], for which the IC50 lay in the range of 10 to 100 µM.

For the compound `O=C1CCC(Sc2ccncc2)C(=O)N1` (centres unmarked) [Compound I-62], the IC50 was 10 to 100 µM. Turning to `CC(C)(C)n1c(SC2CCC(=O)NC2=O)nc2ccccc21` (centres unmarked) [Compound I-63, 3-((1-(tert-Butyl)-1H-benzo[d]imidazol-2-yl)thio)piperidine-2,6-dione], the IC50 lay in the range of 10 to 100 µM. Still for that read-out and setting: the figure for `CCc1ccc([S+]([O-])C2CCC(=O)NC2=O)cc1` (centres unmarked) [Compound I-64, 3-((4-ethylphenyl)sulfinyl)piperidine-2,6-dione] is 10 to 100 µM; for `CCc1ccc(S(=O)(=O)C2CCC(=O)NC2=O)cc1` (centres unmarked) [Compound I-65, 3-((4-ethylphenyl)sulfonyl)piperidine-2,6-dione] it is 10 to 100 µM.

`Cc1ccc(SC2CCC(=O)NC2=O)cc1` (centres unmarked) [Compound I-66]: the IC50 is 10 to 100 µM. In the case of `N#Cc1ccc(SC2CCC(=O)NC2=O)cc1` (centres unmarked) [Compound I-67, 4-((2,6-Dioxopiperidin-3-yl)thio)benzonitrile], the IC50 lay within 10 to 100 µM. Consider `CC(C)c1ccc(SC2CCC(=O)NC2=O)cc1` (centres unmarked) [Compound I-68], for which the IC50 was in the range of 1 to 10 µM. On to `Cc1cccc(SC2CCC(=O)NC2=O)c1` (centres unmarked) [Compound I-69], for which the IC50 lay in the range of 10 to 100 µM.
